Tests used:
Staphylococcus aureus = assay: Growth of Staphylococcus aureus in mastitic milk, colony counts; type: cell-based; conditions: 10 micromoles per ml added at 60 minutes, oxygen-limited
Experimental: Milk was collected at the morning milking, using aseptic technique, from a quarter that had been identified as having a sub-clinical infection with a single organism. The milk was taken to the laboratory and within 2 hours of collection divided amongst sterile incubation containers. The container was either a sealed vessel that was filled so there was no head-space and could be sampled through a rubber septum (limited oxygen) or a flask with a large surface area and head space, incubated in a shaking incubator (oxygenated). Because milk is aerated during collection and handling the samples should have the same oxygen content at the start of incubation. The growth rate was determined by sampling at regular intervals, diluting into recovery diluent, plating and counting the number of colonies.

[1] = pH, oxygen and peroxide analysis after addition of coated sodium percarbonate to milk; type: physicochemical
Experimental: Sodium percarbonate coated with ethyl cellulose was added to 20 mL pasteurized and homogenized milk. The pH value (by pH Meter), the concentration of oxygen (by potentiometric electrode) and peroxide (by chemical test strips) were measured at interval sampling time, as shown in FIG. 4A-C.

## OO [Hydrogen peroxide]
Staphylococcus aureus; after 4 hours, from around 3000 cfu per ml at 60 minutes
  number of viable organisms: 20 cfu per ml
Staphylococcus aureus; at 10 hours and thereafter
  number of viable organisms: no detectable organisms

## O=C([O-])[O-].O=C([O-])[O-].OO.OO.OO.[Na+].[Na+].[Na+].[Na+] [sodium percarbonate]
[1]
  amount required to deliver 30 mg peroxide: 70 to 100 mg

— US20120128650A1, “EXTENDED ACTING OXYGEN GENERATING COMPOSITION FOR TREATING MICROBIAL INFECTIONS” (DEC INTERNATIONAL NZ LIMITED, priority 2009, published 2012)
